Test results taken from paper PMC10880585 (ACS infectious diseases, 2023).
Where two headings read alike, the source gives them in different places.

Tests used:
P. falciparum strain 3D7 [1] = test: P. falciparum growth inhibition assay; type: cell-based, Plasmodium falciparum; conditions: read-out: Pf IC50
P. falciparum DXR [2] = target: T1, P. falciparum DXR (Plasmodium falciparum, UniProt O96693); test: biochemical
T1 sequence (O96693 73-488): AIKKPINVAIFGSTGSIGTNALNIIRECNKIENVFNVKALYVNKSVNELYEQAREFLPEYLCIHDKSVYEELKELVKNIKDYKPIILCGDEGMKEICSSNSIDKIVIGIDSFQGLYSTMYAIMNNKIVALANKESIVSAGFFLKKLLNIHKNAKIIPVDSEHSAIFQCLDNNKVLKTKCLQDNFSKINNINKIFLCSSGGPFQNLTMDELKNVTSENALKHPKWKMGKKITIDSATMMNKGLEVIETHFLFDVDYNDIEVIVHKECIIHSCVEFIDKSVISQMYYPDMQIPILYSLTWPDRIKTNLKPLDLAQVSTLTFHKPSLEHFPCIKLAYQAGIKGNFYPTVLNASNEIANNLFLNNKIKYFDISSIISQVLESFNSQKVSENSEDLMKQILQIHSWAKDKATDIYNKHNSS

P. falciparum DXR [3] = target: T1, P. falciparum DXR
[4] = Metabolic stability in mouse liver microsomes
P. falciparum strain 3D7 [5] = test: IPP rescue of P. falciparum growth inhibition; conditions: 250 μM IPP added to culture media, 72 h
HepG2 cells = test: HepG2 cytotoxicity assay; conditions: for IC50: Homo sapiens, HepG2, 24 h, read-out: HepG2 IC50; for cytotoxicity against HepG2: result in words
[6] = system: HAD1 mutant P. falciparum strain; test: Growth inhibition of had1 mutant P. falciparum; type: cell-based, Plasmodium falciparum; conditions: had1 mutant vs wild-type 3D7
[7] = following iv dosing; cited from earlier work
[8] = Plasmodium falciparum, 3D7, Erythrocyte, 72 h

SMILES: CCOP(=O)(/C=C/CN(O)C(=O)c1ccccc1)OCC [10a, Diethyl [(1E)-3-(N-Hydroxy-1-phenylformamido)prop-1-en-1-yl]phosphonate]
- IC50 (P. falciparum strain 3D7 [1]; [8]): > 319000 nM

SMILES: CCOP(=O)(/C=C/CN(O)C(=O)Cc1ccccc1)OCC [10b, Diethyl [(1E)-3-(N-Hydroxy-2-phenylacetamido)prop-1-en-1-yl]phosphonate]
- IC50 (P. falciparum strain 3D7 [1]; [8]): 337000 nM

SMILES: CCOP(=O)(/C=C/CN(O)C(=O)CCc1ccccc1)OCC [10c, Diethyl [(1E)-3-(N-Hydroxy-3-phenylpropanamido)prop-1-en-1-yl]phosphonate]
- IC50 (P. falciparum strain 3D7 [1]; [8]): > 293000 nM

SMILES: CCOP(=O)(/C=C/CN(O)C(=O)CCCc1ccccc1)OCC [10d, Diethyl [(1E)-3-(N-Hydroxy-4-phenylbutanamido)prop-1-en-1-yl]phosphonate]
- IC50 (P. falciparum strain 3D7 [1]; [8]): 31200 nM

SMILES: O=C(Cc1ccccc1)N(O)C/C=C/P(=O)(O)O [11b, Sodium Hydrogen [(1E)-3-(N-Hydroxy-2-phenylacetamido)prop-1-en-1-yl]phosphonate]
- IC50 (P. falciparum DXR [2]): 170 nM
- IC50 (P. falciparum strain 3D7 [1]; [8]): 468 nM

SMILES: O=C(CCc1ccccc1)N(O)C/C=C/P(=O)(O)O [11c, Sodium Hydrogen [(1E)-3-(N-hydroxy-3-phenylpropanamido)prop-1-en-1-yl]phosphonate]
- IC50 (P. falciparum DXR [2]): 1340 nM
- IC50 (P. falciparum strain 3D7 [1]; [8]): 10800 nM

SMILES: O=C(CCCc1ccccc1)N(O)C/C=C/P(=O)(O)O [11d, Sodium Hydrogen [(1E)-3-(N-Hydroxy-4-phenylbutanamido)prop-1-en-1-yl]phosphonate]
- IC50 (P. falciparum DXR [3]; read-out: Pf DXR IC50): 898 nM
- IC50 (P. falciparum strain 3D7 [1]; [8]): 4980 nM

SMILES: CC(C)(C)C(=O)OCOP(=O)(/C=C/CN(O)C(=O)c1ccccc1)OCOC(=O)C(C)(C)C [13a, [({[(2,2-Dimethylpropanoyl)oxy]methoxy}[(1E)-3-(N-hydroxy-1-phenylformamido)-prop-1-en-1-yl]phosphoryl)oxy]-methyl 2,2-dimethylpropanoate]
- half-life at 1 μM ([4]; mouse, liver microsomes, pH 7.4): < 5 min
- rescue of treated parasites by IPP (P. falciparum strain 3D7 [5]): rescued
- IC50 (P. falciparum strain 3D7 [1]; [8]): 200 nM
- IC50 (HepG2 cells): > 50000 nM
- cytotoxicity against HepG2 (HepG2 cells): non-toxic
- resistance of parasites with elevated intracellular DXP [6]: resistant

SMILES: CC(C)(C)C(=O)OCOP(=O)(/C=C/CN(O)C(=O)Cc1ccccc1)OCOC(=O)C(C)(C)C [13b, [({[(2,2-Dimethylpropanoyl)oxy]methoxy}[(1E)-3-(N-hydroxy-2-phenylacetamido)prop-1-en-1-yl]phosphoryl)oxy]-methyl 2,2-Dimethylpropanoate]
- IC50 (P. falciparum strain 3D7 [1]; [8]): 304 nM

SMILES: CC(C)(C)C(=O)OCOP(=O)(/C=C/CN(O)C(=O)CCCc1ccccc1)OCOC(=O)C(C)(C)C [13d, [({[(2,2-Dimethylpropanoyl)oxy]methoxy}[(1E)-3-(N-hydroxy-4-phenylbutanamido)prop-1-en-1-yl]phosphoryl)-oxy]methyl 2,2-Dimethylpropanoate]
- IC50 (P. falciparum strain 3D7 [1]; [8]): 4550 nM

SMILES: O=CN(O)CCCP(=O)(O)O [compound 1, Fosmidomycin, reference compound]
- renal excretion [7]: 85%
- rescue of treated parasites by IPP (P. falciparum strain 3D7 [5]): rescued
- IC50 (P. falciparum strain 3D7 [1]; [8]): 1020 nM
- resistance of parasites with elevated intracellular DXP [6]: higher resistance

SMILES: CC(=O)N(O)CCCP(=O)(O)O [compound 2, FR-900098, reference compound]
- IC50 (P. falciparum strain 3D7 [1]; […], 3 days, PicoGreen): 511 nM

SMILES: N.N.O=C(c1ccccc1)N(O)C/C=C/P(=O)(O)O [compound 11a, Diammonium [(1E)-3-(N-Hydroxy-1-phenylformamido)-prop-1-en-1-yl]phosphonate]
- time stable in MLM ([4]; mouse liver microsomes): over 1 h
- improvement in activity against the enzyme (P. falciparum DXR [3]; 11a vs saturated compound 4): 2 fold
- rescue of treated parasites by IPP (P. falciparum strain 3D7 [5]): rescued
- IC50 (P. falciparum strain 3D7 [1]; [8]): 369 nM
- IC50 (HepG2 cells): > 50000 nM
- cytotoxicity against HepG2 (HepG2 cells): non-toxic
- resistance of parasites with elevated intracellular DXP [6]: resistant
